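The compound was tested at five concentrations on cells cultured in 96-well plates, with a 48-hour exposure period. The concentration for full growth arrest is given as TGI.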
Assays:
Test in all cases: NCI-60 cell line screen, 48 h
IGROV1 ovarian = tested on: IGROV1 ovarian
MDA-N = tested on: MDA-N
UACC-62 melanoma = tested on: UACC-62 melanoma
SK-OV-3 ovarian = tested on: SK-OV-3 ovarian
SF-295 CNS = tested on: SF-295 CNS
SN12C renal = tested on: SN12C renal
M14 melanoma = tested on: M14 melanoma
RXF 393 renal = tested on: RXF 393 renal
SNB-75 CNS = tested on: SNB-75 CNS
UO-31 renal = tested on: UO-31 renal

SMILES | TGI (IGROV1 ovarian) | TGI (MDA-N) | TGI (UACC-62 melanoma) | TGI (SK-OV-3 ovarian) | TGI (SF-295 CNS) | TGI (SN12C renal) | TGI (M14 melanoma) | TGI (RXF 393 renal) | TGI (SNB-75 CNS) | TGI (UO-31 renal)
C/C=C(\C)C(=O)O[C@@H]1CC(C)(C)CC2C3=CCC4[C@]56CC[C@](O)(OC5)C(C)(C)C6CC[C@@]4(C)C3(C)CC[C@]21C(=O)O (some centres undefined) | > 100 µM | > 100 µM | > 100 µM | > 100 µM | > 100 µM | > 100 µM | > 100 µM | > 100 µM |  | 
C=C(C)[C@H]1C2=CC(C)=C(O2)[C@@H](O)[C@H](C(=C)C)CCC2=C[C@H]1OC2=O | > 100 µM | > 100 µM | > 100 µM |  | > 100 µM | > 100 µM | > 100 µM | > 100 µM | > 100 µM | > 100 µM
COC(=O)c1c2c(cc3c1CC1(Cc4cc5c(c(C(C)=O)c4C1)CCCC5)C3)CCCC2 (centres undefined) | > 100 µM | > 100 µM | > 100 µM | > 100 µM | > 100 µM | > 100 µM | > 100 µM | > 100 µM |  | 
NCCCNOCCCN |  | > 100 µM | > 100 µM | > 100 µM | > 100 µM | > 100 µM | > 100 µM | > 100 µM |  | > 100 µM
COC(=O)C1=C(C(=O)OC)C(N(C)C)C(C(=O)OC)=C(C(=O)OC)S1 |  | > 100 µM | > 100 µM | > 100 µM | > 100 µM | > 100 µM | > 100 µM | > 100 µM | > 100 µM | > 100 µM
CCCCCCCCCCCCCCCCCCNC(=S)/N=C/c1c(O)c2ccccc2[nH]c1=O | 21.2 µM | 35.3 µM |  | 49.1 µM | 47.9 µM | 41 µM | 35.5 µM | 53.5 µM | 28 µM | 32.6 µM
O=C(Nc1ccccc1Cl)c1ccc([N+](=O)[O-])cc1 | > 100 µM |  | > 100 µM | > 100 µM | > 100 µM | > 100 µM | > 100 µM | > 100 µM | 47.5 µM | > 100 µM
Cc1nc2c(cc1OCc1ccccc1)C(=O)C1=C(C2=O)C2OC(=O)CC2OC1(C)C (centres undefined) | 1.31 µM | 1.75 µM | 0.322 µM |  |  | 0.443 µM | 1.77 µM | 1.64 µM | 3.94 µM | 3.24 µM
CC(C)C(=O)/C=C/S/C=C/C(=O)C(C)C | 45.8 µM |  | 27.9 µM | > 100 µM | > 100 µM | 29.6 µM | 20.2 µM | 19.4 µM | > 100 µM | 62.7 µM
OC12c3ccccc3C1CCCCCCCCCC21OCCO1 (centres undefined) | > 100 µM |  | > 100 µM | > 100 µM | > 100 µM | > 100 µM | > 100 µM | > 100 µM | > 100 µM | > 100 µM
CC(=O)C(C(C)=O)[C@@H]1OC(C)(C)O[C@@H]1[C@H]1COC(C)(C)O1 | > 100 µM | 70.1 µM | > 100 µM |  | > 100 µM | 44.9 µM | > 100 µM | > 100 µM |  | > 100 µM
